This note sets out measurements from patent publication EP4810040A2, “INHIBITORS OF APOL1 AND METHODS OF USING SAME” (priority 2020, dated 2022).

Like-named read-outs stand apart in the source and are kept apart here.

This experiment has as its target T1, APOL1 G1 (Homo sapiens, UniProt O14791, I384M/S342G).
T1 sequence (O14791 28-398 S342G/I384M): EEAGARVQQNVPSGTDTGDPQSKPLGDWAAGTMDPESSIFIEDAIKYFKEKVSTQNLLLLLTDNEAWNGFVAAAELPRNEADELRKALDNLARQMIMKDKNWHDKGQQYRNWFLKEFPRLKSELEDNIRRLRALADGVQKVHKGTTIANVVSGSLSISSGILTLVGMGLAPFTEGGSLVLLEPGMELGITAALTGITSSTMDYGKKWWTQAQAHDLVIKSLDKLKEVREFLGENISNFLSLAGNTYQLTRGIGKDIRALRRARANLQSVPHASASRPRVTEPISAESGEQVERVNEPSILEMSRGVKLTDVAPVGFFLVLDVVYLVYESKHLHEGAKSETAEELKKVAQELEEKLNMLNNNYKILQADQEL
The experiment in a line: MultiTox-Fluor Multiplex Cytotoxicity Assay, tet-inducible APOL1 G1 T-REx-HEK293 cells. It is filed as cell-based. Also on record: expressed in transfected cells; host or cells: T-REx HEK293, clone G1 DC3.25 (pAAVS1-Puro-APOL1 G1). As to conditions: for IC90: read-out: Multi-Tox Assay IC90; for Emax: read-out: Multi-Tox Assay Max Activity (%). Here is the method: The MultiTox-Fluor Multiplex Cytotoxicity Assay is a single-reagent-addition, homogeneous, fluorescence assay that measures the number of live and dead cells simultaneously in culture wells. The assay measures cell viability and cytotoxicity by detecting two distinct protease activities. The live-cell protease activity is restricted to intact viable cells and is measured using a fluorogenic, cell-permeant peptide glycyl-phenylalanylamino fluorocoumarin (GF-AFC) substrate. The substrate enters intact cells, where it is cleaved to generate a fluorescent signal proportional to the number of living cells. […] A second, cell-impermeant, fluorogenic peptide substrate (bis-AAF-R110 Substrate) is used to measure dead-cell protease that has been released from cells that have lost membrane integrity. A ratio of dead to live cells is used to normalize data.
Briefly, the tet-inducible transgenic APOL1 T-REx-HEK293 cell lines were incubated with 50 ng/mL tet to induce APOL1 in the presence of 3-(2-(4-fluorophenyl)-1H-indol-3-yl)-N-((3S,4R)-4-hydroxy-2-oxopyrrolidin-3-yl)propenamide at […], 0.0045, 0.0015, 0.0005 µM in duplicate for 24 hours in a humidified 37°C incubator. The MultiTox reagent was added to each well and placed back in the incubator for an additional 30 minutes. The plate was read on the EnVision plate reader. A ratio of dead to live cells was used to normalize, and data was imported, analyzed and fit using Genedata Screener (Basel, Switzerland) software. Data was normalized using percent of control, no tet (100% viability), and 50 ng/mL tet treated (0% viability),and fit using Smart Fit. The reagents, methods, and complete protocol for the MultiTox assay are described below. Table 42. Reagents Used in the Multi-Tox Assay
Human embryonic kidney (HEK293) cell lines containing a tet-inducible expression system (T-REx™; Invitrogen, Carlsbad, CA) and Adeno-associated virus site 1 pAA VS1-Puro-APOL1 G0 or pAAVS1-Puro-APOL1 G1 or pAAVS1-Puro-APOL1 G2 Clones G0 DC2.13, G1 DC3.25, and G2 DC4.44 were grown in a T-225 flask at ~90% confluency in cell growth media (DMEM, 10% Tet-free FBS, 2 mM L-glutamine, 100 Units/mL penicillin-streptomycin, 5 µg/mL blasticidin S HCl, 1 µg/mL puromycin dihydrochloride). Cells were washed with DPBS and then trypsinized to dissociate from the flask. Media was used to quench the trypsin, cells were then pelleted at 200g and resuspended in fresh cell assay media (DMEM, 2% Tet-free FBS, 2 mM L-glutamine, 100 Units/mL penicillin-streptomycin). Cells were counted and diluted to 1.17 x 10^6 cells/mL. 20 µL of cells (23,400/well) were dispensed to every well of a 384-well Poly-D-Lysine coated plate using the Multidrop dispenser. The plates were then incubated at room temperature for one hour.
Tetracycline is needed to induce APOL1 expression. 1 mg/mL tet stock in water was diluted to 250 ng/mL (5X) in cell assay media. 60 µL of cell assay media (no tet control) was dispensed in columns 1 and 24, and 60 µL of 5X tet was dispensed in 384-PP-round bottom plate in columns 2 to 23 with the Multidrop dispenser.
Assay ready plates from the Global Compound Archive were ordered using template 384_APOL1Cell_DR10n2_50uM_v3. Compounds were dispensed at 200 nL in DMSO. The final top concentration was 10 µM with a 10 point 3-fold dilution in duplicate in the MultiTox assay.
20 µL were transferred from the 5X tet plate to the ARP and mixed, then 5 µL of 5X tet and the compounds were transferred to the cell plate and mixed using the Bravo. The cell plate was placed in the humidified 37°C 5% CO2 incubator for 24 hours.
The MultiTox-Fluor Multiplex Cytotoxicity Assay was performed in accordance with the manufacturer's protocol. […]

Setting [1] is: HEK293, Multi-Tox Assay, APOL1 variant (G0/G1/G2) of the HEK293 cells not given.
[2] abbreviates: Multi-Tox Assay, APOL1 variant not given.
Setting [3] is: Multi-Tox Assay, APOL1 variant (G0/G1/G2) not stated in Table 46.
Setting [4] is: Multi-Tox Assay, APOL1 variant not stated in Table 46.

A word on the IC90: it is the concentration at which the effect reaches the 90% level. With `COc1ccccc1-c1ncc([C@@H]2C[C@]3(C[C@H](C)N2)OCCc2cc(Cl)sc23)cn1` (racemic) [Compound 105], the IC90 under setting [1] fell in the range of 0.05 to 0.5 µM. Under setting [2], the “Multi-Tox Assay Max Activity (%)” value stood at 99.3%.
As to `C[C@H]1C[C@@]2(C[C@@H](c3ccc(O)nc3)N1)OCCc1cc(Cl)sc12` (racemic) [Compound 68], the IC90 under setting [1] was under 0.05 µM. Further, the Emax under setting [2] was found to be 99.7%.
Turning to `Cc1c([C@@H]2C[C@]3(C[C@H](C)N2)OCCc2cc(Cl)sc23)cnn1C` (racemic) [Compound 136], under setting [1], the IC90 is 0.05 to 0.5 µM. Besides, the “Multi-Tox Assay Max Activity (%)” value under setting [2] turned out to be 98.7%.
Regarding `C[C@H]1C[C@@]2(C[C@@H](c3cnc4n3CCOC4)N1)OCCc1cc(Cl)sc12` (racemic) [Compound 149], the IC90 under setting [1] was over 0.5 µM. Under setting [2], the “Multi-Tox Assay Max Activity (%)” value came out at 95.7%.
For the compound `CC1CC2(CC(c3ccc4[nH]ncc4c3)N1)OCCc1cc(Cl)sc12` (centres unmarked) [Compound 35], the IC90 under setting [1] was under 0.05 µM. Also, under setting [2], the “Multi-Tox Assay Max Activity (%)” value is 99.3%.
Regarding `CCc1cc2c(s1)C1(C[C@@H](C)N[C@@H](C)C1)OCC2` (single isomer, unassigned) [Compound 199], the IC90 under setting [1] was in the range of 0.05 to 0.5 µM. In addition, the Emax under setting [2] turned out to be 99.3%.
With `C[C@H]1C[C@@]2(C[C@@H](c3cn(CCOc4ccccc4F)nn3)N1)OCC(F)(F)c1cc(Cl)sc12` [Compound 354], the IC90 under setting [1] is 0.05 to 0.5 µM.
In the case of `Cn1cc([C@@H]2C[C@]3(C[C@H](C4CC4)N2)OC[C@@H](O)c2cc(Cl)sc23)nn1` [Compound 382, (2'R,4S,6'S,7S)-2-chloro-2'-cyclopropyl-6'-(1-methyltriazol-4-yl)spiro[4,5-dihydrothieno[2,3-c]pyran-7,4'-piperidine]-4-ol], the IC90 under setting [3] lay in the range of 0.05 to 0.5 µM. Besides, the Emax under setting [4] was 100%.
Turning to `C[C@H]1C[C@@]2(C[C@@H](c3cn(Cc4cccc(CO)c4)nn3)N1)OCC(F)(F)c1cc(Cl)sc12` [Compound 313], the IC90 under setting [1] lay in the range of 0.05 to 0.5 µM. Besides, under setting [2], the “Multi-Tox Assay Max Activity (%)” value was found to be 98.0%.
With `CC(CO)CCn1cc([C@@H]2C[C@]3(C[C@H](C)N2)OC[C@@H](O)c2cc(Cl)sc23)nn1` (some centres unmarked) [Compound 264], the IC90 under setting [1] fell in the range of 0.05 to 0.5 µM. In addition, the “Multi-Tox Assay Max Activity (%)” value under setting [2] amounted to 100.0%.
`C[C@H]1C[C@@]2(C[C@@H](c3cn(Cc4ccc(O)cc4)nn3)N1)OCC(F)(F)c1cc(Cl)sc12` [Compound 302]: the IC90 under setting [1] was 0.05 to 0.5 µM. The “Multi-Tox Assay Max Activity (%)” value under setting [2] is 94.0%.
On to `COc1cccc(Cn2cc([C@@H]3C[C@]4(C[C@H](C)N3)OCC(F)(F)c3cc(Cl)sc34)nn2)c1` [Compound 319], for which the IC90 under setting [1] was in the range of 0.05 to 0.5 µM. Besides, the “Multi-Tox Assay Max Activity (%)” value under setting [2] is given as 95.0%.
Regarding `C[C@H]1C[C@@]2(C[C@@H](c3cn(CC(F)F)nn3)N1)OCC(F)(F)c1cc(Cl)sc12` [Compound 324], the IC90 under setting [1] was over 0.5 µM. The “Multi-Tox Assay Max Activity (%)” value under setting [2] was 96.0%.
With `C[C@H]1C[C@@]2(C[C@@H](C3(N)CC3)N1)OCCc1cc(Cl)sc12` [Compound 373, 1-[(2'S,6'S,7S)-2-chloro-6'-methyl-spiro[4,5-dihydrothieno[2,3-c]pyran-7,4'-piperidine]-2'-yl]cyclopropanamine], the IC90 under setting [3] was 0.05 to 0.5 µM.
As for `Cc1n[nH]c2ncc([C@@H]3C[C@]4(C[C@H](C)N3)OCCc3cc(Cl)sc34)cc12` (racemic) [Compound 48], the IC90 under setting [1] was under 0.05 µM.
As to `C[C@H]1C[C@@]2(C[C@@H](c3cn(Cc4cnccn4)nn3)N1)OCC(F)(F)c1cc(Cl)sc12` [Compound 317], the IC90 under setting [1] is 0.05 to 0.5 µM. For the same compound, the “Multi-Tox Assay Max Activity (%)” value under setting [2] stood at 98.0%.
Turning to `C[C@H]1C[C@@]2(C[C@@H](c3cnn(C)c3)N1)OCCc1cc(Cl)sc12` [Compound 19, (2S)-2-chloro-2'-methyl-6'-(1-methylpyrazol-4-yl)spiro[4,5-dihydrothieno[2,3-c]pyran-7,4'-piperidine]], the IC90 under setting [1] was under 0.05 µM. Besides, the Emax under setting [2] was 99.3%.
With `C[C@H]1C[C@@]2(C[C@@H](c3cnc(N4CCN(C)CC4)nc3)N1)OCCc1cc(Cl)sc12` (racemic) [Compound 129], the IC90 under setting [1] was in the range of 0.05 to 0.5 µM. In addition, the “Multi-Tox Assay Max Activity (%)” value under setting [2] was 100.0%.
On the same counts, the results for `C[C@H]1C[C@@]2(C[C@@H](c3cn(Cc4ccccc4S(C)(=O)=O)nn3)N1)OCC(F)(F)c1cc(Cl)sc12` [Compound 347] are 0.05 to 0.5 µM and 96.0%.
Regarding `C[C@H]1C[C@@]2(C[C@@H](c3cn(Cc4nc5ncccc5[nH]4)nn3)N1)OCC(F)(F)c1cc(Cl)sc12` [Compound 346], the IC90 under setting [1] fell in the range of 0.05 to 0.5 µM.
With `CCn1cc(Cn2cc([C@@H]3C[C@]4(C[C@H](C)N3)OC[C@@H](O)c3cc(Cl)sc34)nn2)cn1` [Compound 290], under setting [1], the IC90 is 0.05 to 0.5 µM.
With `C[C@H]1C[C@@]2(C[C@@H](c3cn(CC4CCOCC4)nn3)N1)OC[C@@H](O)c1cc(Cl)sc12` [Compound 267], under setting [1], the IC90 fell in the range of 0.05 to 0.5 µM.
As for `COCC1CC2(CC(c3cn(C)nn3)N1)OCCc1cc(Cl)sc12` (centres unmarked) [Compound 190], the IC90 under setting [1] lay within 0.05 to 0.5 µM. Moreover, the Emax under setting [2] worked out at 99%.
On to `COc1ccc([C@@H]2C[C@]3(C[C@H](C)N2)OCCc2cc(Cl)sc23)cn1` (racemic) [Compound 49], for which the IC90 under setting [1] is under 0.05 µM. Further, under setting [2], the Emax is 99.7%.
Consider `C[C@H]1C[C@@]2(C[C@@H](c3cn(C)nn3)N1)OC[C@@H](O)c1sc(C(F)(F)F)cc12` [Compound 390, (2'S,4S,6'S,7R)-2'-methyl-6'-(1-methyltriazol-4-yl)-2-(trifluoromethyl)spiro[6,7-dihydrothieno[3,2-c]pyran-4,4'-piperidine]-7-ol], for which the IC90 under setting [3] is under 0.05 µM. For the same compound, under setting [4], the Emax amounted to 99%.
With `C[C@H]1C[C@@]2(C[C@@H](c3cccc4cn[nH]c34)N1)OCCc1cc(Cl)sc12` (racemic) [Compound 168], the IC90 under setting [1] was over 0.5 µM. Further, under setting [2], the “Multi-Tox Assay Max Activity (%)” value is reported as 89.0%.
On the same counts, the results for `COc1ccc([C@@H]2C[C@]3(C[C@H](C)N2)OCCc2cc(Cl)sc23)c(F)c1` (racemic) [Compound 44] are under 0.05 µM and 99.5%.
Take `C[C@H]1C[C@@]2(C[C@@H](c3cn(Cc4ccc(CO)cc4)nn3)N1)OC[C@@H](O)c1cc(Cl)sc12` [Compound 224, (2'S,4S,6'S,7S)-2-chloro-2'-[1-[[4-(hydroxymethyl)phenyl]methyl]triazol-4-yl]-6'-methyl-spiro[4,5-dihydrothieno[2,3-c]pyran-7,4'-piperidine]-4-ol]: the IC90 under setting [1] lay within 0.05 to 0.5 µM. Further, the Emax under setting [2] was 99%.
